Consider six molecules from patent publication US9447069B2, “ROR modulators and their uses” (INNOV17 LLC, priority 2012, dated 2016).

SMILES strings stand for the structures. Read-outs that look alike come from different tables or passages of the source.

As a reminder, the IC50 is the midpoint of a concentration-inhibition curve. As a reminder, the viability is the share of living cells, or the viability signal relative to a control. One may read the EC50 as the midpoint of the concentration-response curve.

One data set has as its system IL-17A. The experiment in a line: TH17 cytokine inhibition measured by ELISA (IL-17A). Type of data set: cell-based. Particulars: 120 h; human TH17 cells, 5 days differentiation, ELISA of supernatants, 0.1% DMSO. How it is done:
(§1) Peripheral blood mononuclear cells (PBMCs) were sourced from freshly prepared leukocyte enriched plasma (buffy coat) from healthy volunteers from which PBMCs were isolated by density gradient centrifugation using Ficoll-Paque™ PLUS (GE Healthcare). Naïve CD4+ T cells were isolated using the Naïve CD4+ T cell Isolation Kit II (Miltenyi Biotec) as per manufacturer's instructions. CD4+ T cells were plated at 5×10^4 cells/well in 96 well plates pre-coated with immobilized human (h)-αCD3 antibody (eBioscience) then differentiated to TH17 cells using h-αCD28, h-αIFN-γ, h-αIL-4, h-IL-6, h-IL-23, h-IL-1β, h-TGF-β1 (eBioscience) and maintained in a cell culture incubator at 37° C. with 5% CO2 in TexMACS Medium (Miltenyi Biotec) supplemented with 1% Penicillin/Streptomycin (Lonza) over 5 days.
Human CD4+ T cells were differentiated to TH17 cells as described in the presence or absence of various concentrations of compounds in a final concentration of 0.1% DMSO in TexMACS medium. Supernatants were collected and stored at −20° C. until they were to be assayed for IL-17A, IL-17F, IL-17AF, IL-21 and/or IL-22 levels as determined by Ready-Set-Go ELISA kits (eBioscience) as per manufacturer's instructions. Endpoint absorbance was read at 450 nm and 570 nm according to manufacturer's instructions (eBioscience) using a microplate reader (Perkin Elmer). The percentage of cytokine inhibition was calculated with reference to DMSO treated cells and the IC50s were determined by GraphPad Prism software and presented in the table below.
A general note: ELISA stands for enzyme-linked immunosorbent assay.

Data set [1] in a line: TH17 cell viability (Prestoblue). Type of data set: cell-based. To be noted: human; 1 μM compound, after 5 days, percentage of DMSO treated cells. The protocol: as §1
Cells were assayed for viability in the presence or absence of 1 μM compound using Prestoblue® Cell Viability Reagent (Life Technologies) as per manufacturer's instructions after 30 minutes incubation of TH17 cells with reagent. Absorbance was measured at 570 nm and 600 nm using a microplate reader (Perkin Elmer) and data were analyzed as per manufacturer's instructions. Cell viability was determined after 5 days and expressed as a percentage of DMSO treated cells.

For a further data set, the system named is IL-22. Nature of the data set: Real-Time qRT-PCR gene expression in TH17 cells (IL-22). Type of data set: cell-based, human. Also noted: key: A: No change in gene expression observed relative to DMSO treated Th17 cells; B: Decreased gene expression observed relative to DMSO treated Th17 cells; C: Increased gene expression observed relative to DMSO treated Th17 cells. Particulars: normalized to six reference genes. How it is done:
as §1
(§2) RNA was isolated from TH17 cells and cDNA was synthesized using the Verso cDNA kit (Thermo Scientific) as per manufacturer's instructions. IL-17A, IL-17F, IL-21, IL-22, G-CSF, IL-23R and FOXP3 gene expression were determined for compound treated and untreated TH17 cell samples using Solaris qPCR Gene expression assays (Thermo Scientific) with an iCycler iQ Real-Time PCR Detection System (Bio-Rad). Individual gene expression was normalized to a panel of six reference genes (ACTB, TBP, HPRT1, PGK1, TFRC and PPIA) (Thermo Scientific) and analyzed by REST 2009 (Qiagen) in accordance to MIQE guidelines (Bustin et al. (2009) Clin. Chem, 55:611-622). The effects of compounds on TH17 cytokine gene expression are presented as fold change in mRNA levels of compound treated TH17 cells relative to DMSO treated cells in the table below.

A further data set concerns IL-21. Nature of the data set: Real-Time qRT-PCR gene expression in TH17 cells (IL-21). Type of data set: cell-based, human. Particulars: normalized to six reference genes. Also noted: key: A: No change in gene expression observed relative to DMSO treated Th17 cells; B: Decreased gene expression observed relative to DMSO treated Th17 cells; C: Increased gene expression observed relative to DMSO treated Th17 cells. The protocol: as §1, §2
(In general: Quantitative PCR measures a nucleic acid by following its amplification.)

Data set [2] has as its target T1, RORγ LBD (Homo sapiens, UniProt P51449).
T1 sequence (P51449 269-508 limits assumed): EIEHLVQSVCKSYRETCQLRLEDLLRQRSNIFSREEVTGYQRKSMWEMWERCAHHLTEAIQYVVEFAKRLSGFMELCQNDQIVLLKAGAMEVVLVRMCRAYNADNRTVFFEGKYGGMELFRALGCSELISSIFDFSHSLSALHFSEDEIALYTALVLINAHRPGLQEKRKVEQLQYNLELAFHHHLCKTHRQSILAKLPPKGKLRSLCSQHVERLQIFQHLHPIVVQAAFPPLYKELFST
The experiment in a line: RORγ LBD binding (Human RORγ Assay System, INDIGO Biosciences). Also noted: purchased INDIGO Biosciences Inc. Particulars: 0.5% DMSO. How it is done:
Compound binding to the human RORγ LBD was assessed using the Human RORγ Assay System (INDIGO Biosciences Inc.) as per manufacturer's instructions.

The target in data set [3] is T1, RORγ LBD. Nature of the data set: TR-FRET D22 co-activator displacement from RORγ LBD. Also noted: purified GST-tagged (i) RORγ LBD or (ii) RORα LBD; purchased Life Technologies. Type of data set: biochemical. From the text: The Time-Resolved Fluorescence Resonance Energy Transfer (TR-FRET) assay kit (Life Technologies) was used to measure compound efficacy to disrupt or enhance ligand-mediated interaction of the co-activator and co-repressor peptides with the purified GST-tagged (i) RORγ LBD or (ii) RORα LBD. The RORγ LBD and RORα LBD each have a basal level of interaction with the co-activator D22 or co-repressor NCoR1-D2 in the absence of ligand, thus it is possible to identify compounds that inhibit or induce RORγ and/or RORα co-activator/co-repressor interactions, thus determining RORα, RORγ, or RORα/RORγ compound selectivity. The assay was performed as per manufacturer's instructions and TR-FRET was assessed 2 and 20 hours post-assay initiation. Compounds were identified to (i) have no impact on either co-activator displacement or […] from the assessed LBD (ii) promote co-activator displacement from the assessed LBD (iii) promote co-repressor recruitment to the assessed LBD or (iv) concurrently promote co-activator displacement from the assessed LBD and co-repressor recruitment to the assessed LBD.
(TR-FRET usually uses a lanthanide donor and a delayed reading to cut background.)

[4] abbreviates: TR-FRET assessed 2 hr post-assay initiation, read-out: RORγ EC50 D22 co-activator displacement, 2 hr.
[5] abbreviates: TR-FRET assessed 20 hr post-assay initiation, read-out: RORγ EC50 D22 co-activator displacement, 20 hr.

With `Cc1n[nH]c(-c2ccc3c(c2)CCCN3Cc2ccc(C(O)(C(F)(F)F)C(F)(F)F)cc2)n1` [Example 3, 1,1,1,3,3,3-hexafluoro-2-(4-((6-(3-methyl-1H-1,2,4-triazol-5-yl)-3,4-dihydroquinolin-1(2H)-yl)methyl)phenyl)propan-2-ol], the figures for the 50% inhibitory concentration (IC50) with IL-17A and at RORγ LBD [2] were less than 10 µM and greater than 10 µM, respectively. The same molecule came in with a viability at 5 days, 1 µM in data set [1] greater than 80%. In the data set with IL-22, the “Fold change in mRNA levels of compound treated TH17 cells relative to DMSO treated cells, IL-22” value is on record as “B”. For the same molecule, the “Fold change in mRNA levels of compound treated TH17 cells relative to DMSO treated cells, IL-21” value in the data set with IL-21 was “B”. For the same molecule, the concentration for a half-maximal effect (EC50) on RORγ LBD [3] (setting [4]) is less than 30 µM; on RORγ LBD [3] (setting [5]), greater than 30 µM.

As for `Cc1cc(-c2ccc3c(c2)CCC(=O)N3Cc2ccc(C(O)(C(F)(F)F)C(F)(F)F)cc2)[nH]n1` [Example 4, 1-(4-(1,1,1,3,3,3-hexafluoro-2-hydroxypropan-2-yl)benzyl)-6-(3-methyl-1H-pyrazol-5-yl)-3,4-dihydroquinolin-2(1H)-one], the concentration for half-maximal inhibition (IC50) in the data set on IL-17A and at RORγ LBD [2] was less than 10 µM throughout. This molecule registered a viability at 5 days, 1 µM in data set [1] greater than 80%. Moreover, the “Fold change in mRNA levels of compound treated TH17 cells relative to DMSO treated cells, IL-22” value in the data set on IL-22 is given as “B”. The “Fold change in mRNA levels of compound treated TH17 cells relative to DMSO treated cells, IL-21” value with IL-21 was “B”. Moreover, the 50% effective concentration (EC50) on RORγ LBD [3] (setting [4]) and at RORγ LBD [3] (setting [5]) was greater than 30 µM in each case.

On to `Cc1n[nH]c(-c2ccc3c(c2)CCC(=O)N3Cc2ccc(C(O)(C(F)(F)F)C(F)(F)F)cc2)n1` [Example 6, 1-(4-(1,1,1,3,3,3-hexafluoro-2-hydroxypropan-2-yl)benzyl)-6-(3-methyl-1H-1,2,4-triazol-5-yl)-3,4-dihydroquinolin-2(1H)-one], for which the results for the IC50 with IL-17A and on RORγ LBD [2] were less than 10 µM and greater than 10 µM, respectively. Besides, the viability at 5 days, 1 µM in data set [1] is greater than 80%. Besides, in the data set on IL-22, the “Fold change in mRNA levels of compound treated TH17 cells relative to DMSO treated cells, IL-22” value was “B”. In addition, in the data set on IL-21, the “Fold change in mRNA levels of compound treated TH17 cells relative to DMSO treated cells, IL-21” value is listed as “A”. The EC50 at RORγ LBD [3] (setting [4]) and on RORγ LBD [3] (setting [5]) was less than 30 µM in each case.

As for `O=C1CCc2cc(-c3cn[nH]c3)ccc2N1Cc1ccc(C(O)(C(F)(F)F)C(F)(F)F)cc1` [Example 5, 1-(4-(1,1,1,3,3,3-hexafluoro-2-hydroxypropan-2-yl)benzyl)-6-(1H-pyrazol-4-yl)-3,4-dihydroquinolin-2(1H)-one], the values for the IC50 with IL-17A and at RORγ LBD [2] were less than 10 µM and greater than 10 µM, respectively. This molecule gave a viability at 5 days, 1 µM in data set [1] of less than 80%. Besides, the “Fold change in mRNA levels of compound treated TH17 cells relative to DMSO treated cells, IL-22” value in the data set with IL-22 is given as “A”. Further, the “Fold change in mRNA levels of compound treated TH17 cells relative to DMSO treated cells, IL-21” value in the data set with IL-21 is on record as “A”. The EC50 at RORγ LBD [3] (setting [4]) is greater than 30 µM; on RORγ LBD [3] (setting [5]), less than 30 µM.

With `OC(c1ccc(CN2CCCc3cc(-c4cn[nH]c4)ccc32)cc1)(C(F)(F)F)C(F)(F)F` [Example 2, 2-(4-((6-(1H-pyrazol-4-yl)-3,4-dihydroquinolin-1(2H)-yl)methyl)phenyl)-1,1,1,3,3,3-hexafluoropropan-2-ol], the results for the concentration for half-maximal inhibition (IC50) with IL-17A and on RORγ LBD [2] were less than 10 µM and greater than 10 µM, respectively. In addition, the viability at 5 days, 1 µM in data set [1] is greater than 80%. In addition, the “Fold change in mRNA levels of compound treated TH17 cells relative to DMSO treated cells, IL-22” value in the data set on IL-22 is given as “B”. Further, the “Fold change in mRNA levels of compound treated TH17 cells relative to DMSO treated cells, IL-21” value with IL-21 was “B”. Besides, the concentration for a half-maximal effect (EC50) on RORγ LBD [3] (setting [4]) and on RORγ LBD [3] (setting [5]) was less than 30 µM each time.

In the case of `Cc1cc(-c2ccc3c(c2)CCCN3Cc2ccc(C(O)(C(F)(F)F)C(F)(F)F)cc2)[nH]n1` [Example 1, 1,1,1,3,3,3-hexafluoro-2-(4-((6-(3-methyl-1H-pyrazol-5-yl)-3,4-dihydroquinolin-1(2H)-yl)methyl)phenyl)propan-2-ol], the IC50 in the data set with IL-17A is less than 10 µM; on RORγ LBD [2] it was greater than 10 µM. The viability at 5 days, 1 µM in data set [1] is greater than 80%. Further, the “Fold change in mRNA levels of compound treated TH17 cells relative to DMSO treated cells, IL-22” value in the data set on IL-22 is reported as “B”. For the same molecule, the “Fold change in mRNA levels of compound treated TH17 cells relative to DMSO treated cells, IL-21” value in the data set with IL-21 is listed as “B”. Moreover, the half-maximal effective concentration (EC50) on RORγ LBD [3] (setting [4]) and at RORγ LBD [3] (setting [5]) was less than 30 µM throughout.
